IC50 data for 27 molecules are collected here from patent publication US10328077B2 (CELGENE CORPORATION, priority 2016, dated 2019).

Some results are limits rather than exact numbers.

The target in experiment [1] is human LSD-1 (Homo sapiens (Human), UniProt O60341). The experiment in a line: In vitro enzyme inhibition assay LSD-1 (TR-FRET). The experiment is classed as biochemical. The following applies: TR-FRET, H3K4me1-biotin labeled peptide. An excerpt: This assay determines the ability of a test compound to inhibit LSD-1 demethylase activity.
The enzymatic assay of LSD-1 activity is based on Time Resolved-Fluorescence Resonance Energy Transfer (TR-FRET) detection.

The test system of experiment [2] is CD11b expression in THP-1 (AML) cells. The experiment in a line: LSD-1 CD11b cellular assay (flow cytometry). The following applies: Homo sapiens, THP-1, 96 h, read-out: THP-1 IC50.
Method: To analyze LSD-1 inhibitor efficacy in cells, a CD11b flow cytometry assay was performed. […] LSD-1 test compounds were serially diluted in DMSO. The dilutions were added to each well accordingly to a final concentration of 0.2% DMSO. The cells were incubated at 37 degrees Celsius in 5% CO2 for 4 days. 250 μL of each well was transferred to a well in a 96 well round bottom plate. The plate was centrifuged at 1200 rpm at 4 degrees Celsius in a Beckman Coulter Alegra 6KR centrifuge for 5 minutes. The media was removed leaving the cells at the bottom of the wells. The cells were washed in 100 μL cold HBSS (Hank's Balanced Salt Solution) plus 2% BSA (Bovine Serum Albumin) solution and centrifuged at 1200 rpm at 4 degrees Celsius for 5 minutes. The wash was removed. […] The cells were centrifuged and washed two times in 100 μl HBSS plus 2% BSA. After the final spin the cells were resuspended in 100 μL HBSS plus 2% BSA containing 1 μg/mL DAPI (4′,6-diamidino-2-phenylindole). The cells were then analyzed by flow cytometry in a BD FACSAria machine. Cells were analyzed for CD11b expression. The percent of CD11b expressing cells for each inhibitor concentration was used to determine an IC50 curve for each compound analyzed.

Turning to `COc1ccc(-c2c(-c3ccc(C#N)c(F)c3)nc(N(C)C[C@@H]3CCNC3)n(C)c2=O)cc1` (stereo in doubt) [Example 56, 2-fluoro-4-[5-(4-methoxy-phenyl)-1-methyl-2-(methyl-pyrrolidin-3-ylmethyl-amino)-6-oxo-1,6-dihydro-pyrimidin-4-yl]-benzonitrile], the IC50 in experiment [1] and in experiment [2] was less than 100 nM each time. Turning to `COc1ccc(-c2c(-c3ccc(C#N)cc3)nc(N3CCC(N)CC3)n(C)c2=O)cc1` [Example 2, 4-[2-(4-amino-piperidin-1-yl)-5-(4-methoxy-phenyl)-1-methyl-6-oxo-1,6-dihydro-pyrimidin-4-yl]-benzonitrile], the IC50 in experiment [2] is less than 100 nM. Turning to `CCc1ccc(-c2c(-c3ccc(C#N)cc3)nc(N3CCC(N)CC3)n(C)c2=O)cn1` [Example 10, 4-[2-(4-amino-piperidin-1-yl)-5-(6-ethyl-pyridin-3-yl)-1-methyl-6-oxo-1,6-dihydro-pyrimidin-4-yl]-benzonitrile], the results for the IC50 in experiment [1] and in experiment [2] were less than 100 nM and 100 to 1000 nM, respectively. In the same order, the values of `CNC1CCN(c2nc(-c3ccc(C#N)c(F)c3)c(-c3ccc(OC)cc3)c(=O)n2C)CC1` [Example 11, 2-fluoro-4-[5-(4-methoxy-phenyl)-1-methyl-2-(4-methylamino-piperidin-1-yl)-6-oxo-1,6-dihydro-pyrimidin-4-yl]-benzonitrile] are less than 100 nM and less than 100 nM. In the same order, the values of `CNC1CCN(c2nc(-c3ccc(C#N)c(F)c3)c(-c3ccc(OC)c(F)c3)c(=O)n2C)CC1` [Example 12, 2-fluoro-4-[5-(3-fluoro-4-methoxy-phenyl)-1-methyl-2-(4-methylamino-piperidin-1-yl)-6-oxo-1,6-dihydro-pyrimidin-4-yl]-benzonitrile] are less than 100 nM and less than 100 nM. Taken in the same sequence, the figures for `Cn1c(N2CCC(N)CC2)nc(-c2ccc(C#N)c(F)c2)c(C#CC2CCCC2)c1=O` [Example 14, 4-[2-(4-amino-piperidin-1-yl)-5-cyclopentylethynyl-1-methyl-6-oxo-1,6-dihydro-pyrimidin-4-yl]-2-fluoro-benzonitrile] were less than 100 nM and less than 100 nM. Regarding `COc1ccc(-c2c(-c3ccc(C#N)c(F)c3)nc(N3CCC(N)CC3)n(CC(N)=O)c2=O)cc1` [Example 16, 2-[2-(4-amino-piperidin-1-yl)-4-(4-cyano-3-fluoro-phenyl)-5-(4-methoxy-phenyl)-6-oxo-6H-pyrimidin-1-yl]-acetamide], the IC50 in experiment [1] and in experiment [2] was less than 100 nM each time. As for `Cn1c(N2CCC(N)CC2)nc(-c2ccc(C#N)c(F)c2)c(-c2ccc3occc3c2)c1=O` [Example 18, 4-[2-(4-amino-piperidin-1-yl)-5-benzofuran-5-yl-1-methyl-6-oxo-1,6-dihydro-pyrimidin-4-yl]-2-fluoro-benzonitrile], the IC50 in experiment [1] and in experiment [2] was less than 100 nM throughout. On to `COc1ccc(-c2c(-c3ccc(C#N)c(F)c3)nc(N3CCC4(CCNC4)CC3)n(C)c2=O)cc1F` [Example 22, 4-[2-(2,8-diaza-spiro[4.5]dec-8-yl)-5-(3-fluoro-4-methoxy-phenyl)-1-methyl-6-oxo-1,6-dihydro-pyrimidin-4-yl]-2-fluorobenzonitrile], for which the concentration for half-maximal inhibition (IC50) in experiment [1] and in experiment [2] was less than 100 nM throughout. As for `Cn1c(N2CCC(N)CC2)nc(-c2ccc(C#N)c(F)c2)c(-c2ccc(C(F)(F)F)nc2)c1=O` [Example 23, 4-{2-(4-aminopiperidyl)-1-methyl-6-oxo-5-[6-(trifluoromethyl) (3-pyridyl)] hydropyrimidin-4-yl}-2-fluorobenzenecarbonitrile], the IC50 in experiment [2] is less than 100 nM. As for `COc1ccc(-c2c(-c3ccc(C#N)c(F)c3)nc(N3CCC[C@@H](N)C3)n(C)c2=O)cc1F` [Example 25, 4-[2-((3R)-3-aminopiperidyl)-5-(3-fluoro-4-methoxyphenyl)-1-methyl-6-oxohydropyrimidin-4-yl]-2-fluorobenzenecarbonitrile], the IC50 in experiment [1] and in experiment [2] was less than 100 nM in each case. Turning to `COc1ccc(-c2c(-c3ccc(C#N)c(F)c3)nc(N3CC[C@@H](N)C3)n(C)c2=O)cc1F` [Example 27, 4-[2-((3R)-3-aminopyrrolidinyl)-5-(3-fluoro-4-methoxyphenyl)-1-methyl-6-oxohydropyrimidin-4-yl]-2-fluorobenzenecarbonitrile], the IC50 in experiment [1] and in experiment [2] was less than 100 nM throughout. As for `COc1ccc(-c2c(-c3ccc(C#N)c(F)c3)nc(N3CC[C@H](N)C3)n(C)c2=O)cc1F` [Example 29, 4-[2-((3S)-3-amino-pyrrolidin-1-yl)-5-(3-fluoro-4-methoxy-phenyl)-1-methyl-6-oxo-1,6-dihydro-pyrimidin-4-yl]-2-fluoro-benzonitrile], the IC50 in experiment [1] was less than 100 nM; in experiment [2] it was 100 to 1000 nM. For the molecule `COc1ccc(-c2c(-c3ccc(C#N)c(F)c3)nc(N3CCC[C@@H](N)C3)n(C)c2=O)cc1` [Example 30, 4-[2-((3R)-3-aminopiperidyl)-5-(4-methoxyphenyl)-1-methyl-6-oxohydro-pyrimidin-4-yl]-2-fluorobenzenecarbonitrile], the IC50 in experiment [1] and in experiment [2] was less than 100 nM in each case.

Turning to `COc1ccc(-c2c(-c3ccc(C#N)c(F)c3)nc(N3CCC[C@H](N)C3)n(C)c2=O)cc1` [Example 31, 4-[2-((3S)-3-amino-piperidin-1-yl)-5-(4-methoxy-phenyl)-1-methyl-6-oxo-1,6-dihydro-pyrimidin-4-yl]-2-fluoro-benzonitrile], the IC50 in experiment [1] and in experiment [2] was less than 100 nM in each case. As for `COc1ccc(-c2c(-c3ccc(C#N)c(F)c3)nc(N3CCC(C)(N)CC3)n(C)c2=O)cc1F` [Example 32, 4-[2-(4-amino-4-methyl-piperidin-1-yl)-5-(3-fluoro-4-methoxy-phenyl)-1-methyl-6-oxo-1,6-dihydro-pyrimidin-4-yl]-2-fluoro-benzonitrile], the IC50 in experiment [1] and in experiment [2] was less than 100 nM in each case. `Cn1c(N2CCC(N)CC2)nc(-c2ccc(C#N)cc2)c(-c2ccc3c(cnn3C)c2)c1=O` [Example 33, 4-[2-(4-aminopiperidyl)-1-methyl-5-(1-methyl(1H-indazol-5-yl))-6-oxohydropyrimidin-4-yl]benzenecarbonitrile]: the half-inhibitory concentration (IC50) in experiment [2] is less than 100 nM.

`Cn1cc2cc(-c3c(-c4ccc(C#N)c(F)c4)nc(N4CCC(N)CC4)n(C)c3=O)ccc2n1` [Example 37, 4-[2-(4-aminopiperidyl)-1-methyl-5-(2-methyl(2H-indazol-5-yl))-6-oxohydropyrimidin-4-yl]-2-fluorobenzenecarbonitrile]: the IC50 in experiment [1] and in experiment [2] was less than 100 nM throughout.

On to `COc1c(F)cc(-c2c(-c3ccc(C#N)cc3)nc(N3CCC(N)CC3)n(C)c2=O)cc1F` [Example 38, 4-[2-(4-aminopiperidyl)-5-(3,5-difluoro-4-methoxyphenyl)-1-methyl-6-oxohydropyrimidin-4-yl]benzenecarbonitrile], for which the IC50 in experiment [1] and in experiment [2] was less than 100 nM each time. Regarding `Cn1c(N2CCC(N)CC2)nc(-c2ccc(C#N)cc2)c(-c2ccc(C(N)=O)c(F)c2)c1=O` [Example 41, 4-[2-(4-aminopiperidyl)-6-(4-cyanophenyl)-3-methyl-4-oxo(3-hydropyrimidin-5-yl)]-2-fluorobenzamide], the IC50 in experiment [1] was less than 100 nM; in experiment [2], 100 to 1000 nM.

For the molecule `Cn1c(N2CCC(N)CC2)nc(-c2ccc(C#N)c(F)c2)c(-c2ccc3c(c2)CNC3=O)c1=O` [Example 42, 4-[2-(4-amino-piperidin-1-yl)-1-methyl-6-oxo-5-(1-oxo-2,3-dihydro-1H-isoindol-5-yl)-1,6-dihydro-pyrimidin-4-yl]-2-fluoro-benzonitrile], the values for the IC50 in experiment [1] and in experiment [2] were less than 100 nM and 100 to 1000 nM, respectively. Consider `COc1ccc(-c2c(-c3ccc(C#N)c(F)c3)nc(N3CCCNCC3)n(C)c2=O)cc1F` [Example 46, 4-[2-[1,4]diazepan-1-yl-5-(3-fluoro-4-methoxy-phenyl)-1-methyl-6-oxo-1,6-dihydro-pyrimidin-4-yl]-2-fluoro-benzonitrile], for which the IC50 in experiment [1] and in experiment [2] was less than 100 nM each time. On to `CN(C)c1ncc(-c2c(-c3ccc(C#N)c(F)c3)nc(N3CCC(N)CC3)n(C)c2=O)cn1` [Example 49, 4-[2-(4-amino-piperidin-1-yl)-2′-dimethylamino-1-methyl-6-oxo-1,6-dihydro-[5,5′]bipyrimidinyl-4-yl]-2-fluoro-benzonitrile], for which the IC50 in experiment [1] and in experiment [2] was less than 100 nM each time. `CNC(=O)c1ccc(-c2c(-c3ccc(C#N)c(F)c3)nc(N3CCC(N)CC3)n(C)c2=O)cn1` [Example 50, 5-[2-(4-amino-piperidin-1-yl)-4-(4-cyano-3-fluoro-phenyl)-1-methyl-6-oxo-1,6-dihydro-pyrimidin-5-yl]-pyridine-2-carboxylic acid methylamide]: the IC50 in experiment [1] and in experiment [2] was less than 100 nM each time. For `Cn1c(N2CCC(N)CC2)nc(-c2ccc(C#N)c(F)c2)c(-c2ccc3c(ccn3C)c2)c1=O` [Example 74, 4-[2-(4-amino-piperidin-1-yl)-1-methyl-5-(1-methyl-1H-indol-5-yl)-6-oxo-1,6-dihydro-pyrimidin-4-yl]-2-fluoro-benzonitrile], in experiment [2], the IC50 was less than 100 nM. On the same count and under the same terms, with `Cn1c(N2CCC(N)CC2)nc(-c2ccc(C#N)c(F)c2)c(-c2ccc3cc[nH]c3c2)c1=O` [Example 75, 4-[2-(4-amino-piperidin-1-yl)-5-(1H-indol-6-yl)-1-methyl-6-oxo-1,6-dihydro-pyrimidin-4-yl]-2-fluoro-benzonitrile] the figure was less than 100 nM. Still for that read-out and setting: the value for `COc1ccc(-c2c(-c3ccc(Cl)c(F)c3)nc(N3CCC(N)CC3)n(C)c2=O)cc1` [Example 111, 2-(4-amino-piperidin-1-yl)-6-(4-chloro-3-fluoro-phenyl)-5-(4-methoxy-phenyl)-3-methyl-3H-pyrimidin-4-one] was 100 to 1000 nM.
